Results taken from US9169241B2, “Quinolinyloxyphenylsulfonamides” (Max-Planck-Gesellschaft Zur Forderung der Wissenschaften …, priority 2009, dated 2015).
Like-named read-outs stand apart in the source and are kept apart here.

How the values were obtained:
[1] = test system: cells; assay: Boyden chamber migration assay (Table VI); format: cell-based; conditions: Homo sapiens, Hs-578T, 16 h, Hs578T cells; 16 h migration
Description: The Boyden chamber assay is based on a chamber of two medium-filled compartments separated by a microporous membrane of 8 μM (Cell culture insert 8.0 μM pore size, BD Biosciences, Bedford, Mass.). The boyden chamber migration assays were carried out according to the supplier's instructions. In general, 20000 cells are placed in the upper compartment with medium containing 0% FCS plus 0.1% BSA and are allowed to migrate 16 h through the pores of the membrane into the lower compartment, which is filled with cell culture medium containing 10% FCS as chemotactic agents. The cells remaining in the insert were removed with a cotton swab, and the cells on the bottom of the filter were fixed and counted. (Zhang Y X, et al. AXL is a potential target for therapeutic intervention in breast cancer progression. Cancer Res. 2008; 68:1905-15).

[2] = test system: indicated cell line; assay: Wound healing migration assay (Table IV); format: cell-based; conditions: compounds at 12.5, 6.25, 3.125 μM, 48 h-72 h
Description: This method mimics cell migration during wound healing in vivo. The basic steps involve creating a “wound” in a cell monolayer, capturing the images at the beginning and at regular intervals during cell migration to close the wound, and comparing the images to quantify the migration rate of the cells. In detail, 150000 cell/24 well have been seeded and allowed to form a monolayer overnight. Subsequently a “wound” or “scratch” has been performed with a 1000 μl pipette tip. The STDV of wound size is normally below 10% at time point t0. The assay was stopped by fixation with 0.05% Crystal violet/20% methanol when control scratches were closed. The assay was terminated between 48 h and 72 h depending on the migration potential of the indicated cell line. The “wounds” were visualized with a Zeiss Axiovert S100 microscope (Carl Zeiss UK, Welwyn Garden City, UK). The tested compounds were used at 12.5 μM, 6.25, 3.125 μM and DMSO control. IC50 values have been calculated as 50% wound size in between t0 and t48 or t72.

[3] = test system: tumor cell; assay: Matrigel outgrowth assay/branching assay (Table Va); format: cell-based
Description: The Matrigel outgrowth assay is based on the ability of tumor cell to penetrate a solid gel of extracellular matrix proteins mimicking the metastasis formation in vivo. While cells with low invasive potential appear as roundish cell or cell cluster, cells with high invasive potential penetrate the Matrigel and form polymorphic structures. In detail 65 μl of Matrigel matrix (Matrigel™ Matrix, BD Biosciences, Bedford, Mass., USA) with a concentration of 3 mg/ml have been polymerized in 96 well plates for 1 h at 37° C. Subsequently 5000 cell/well were seeded into each well containing cell culture medium and indicated compound with concentrations of 3.125 μM, 1.56 μM and 0.78 μM as well as DMSO control. After 48 h, 72 h and 96 h images of cell were taken on an inverted microscope using a 5× objective (Zeiss Axiovert S100 microscope Carl Zeiss UK, Welwyn Garden City, UK). Only compound concentrations were total branching inhibition was evident were accounted as positive. Method was used as previously described, with some modifications (Thompson E W, et al. Association of increased basement membrane invasiveness with absence of estrogen receptor and expression of vimentin in human breast cancer cell lines. J Cell Physiol 1992; 150:534-44).

[4] = test system: Hs578T; assay: Matrigel outgrowth assay/branching assay; format: cell-based; conditions: Homo sapiens, Hs-578T; HS578T cell line; Table Ib; read-out: Total branching inhibition in Matrigel HS578T
Summary of the method: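 Read-out: microscopic images of invasive branching structures at 48 h, 72 h and 96 h. Cells sat on a 3 mg/ml Matrigel layer (set 1 h, 37° C) with compound at 3.125, 1.56 and 0.78 μM or DMSO. A concentration counts as positive only with complete branching inhibition.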

[5] = test system: SF763; assay: Apoptosis assay (Cellomics, nucleus condensation); format: cell-based; conditions: Table III, read-out: Apoptosis induction in SF763
Description: (§1) The Cellomics BioApplication (Thermo Fischer Cellomics Products, Pittsburgh, Pa.) is an automated image analysis algorithm that provides detailed analysis of phenotypes related to apoptosis. As one of the most prominent characteristics of apoptotics cell a nucleus condensation takes place. This can be measured fluorescence signal intensity using a CCD camera on fully automated microscope system. The Cellomics system is able to quantify the fluorescence intensity per single nucleus and calculates the variation of signal intensity in each cell population. […] Additionally the number of detected cell decreases normally in apoptotic cell populations. In detail 5000 cell per 96 well were labeled with DNA intercalating dye (Hoechst 33342, Sigma, Steinheim, Germany) to visualize the nucleus in a fluorescence microscope under live conditions. The apoptosis assay was performed 24 h and 48 h after addition of compound at concentrations 12.5 μM, 6.25 μM, 3.125 μM, 1.56 μM, 0.78 μM, 0.39 μM as well as DMSO control for 48 h.

[6] = test system: Hs578T; assay: Apoptosis assay (Cellomics, nucleus condensation); format: cell-based; conditions: Homo sapiens, Hs-578T, Table III, read-out: Apoptosis induction in Hs578T
Description: as §1

[7] = test system: U138; assay: Apoptosis assay (Cellomics, nucleus condensation); format: cell-based; conditions: Table III, read-out: Apoptosis induction in U138
Description: as §1

[8] = test system: SF126; assay: Apoptosis assay (Cellomics, nucleus condensation); format: cell-based; conditions: Homo sapiens, SF-126, Table III, read-out: Apoptosis induction in SF126
Description: as §1

[9] = test system: C8161; assay: Apoptosis assay (Cellomics, nucleus condensation); format: cell-based; conditions: Homo sapiens, Table III, read-out: Apoptosis induction in C8161
Description: as §1

[10] = test system: U118; assay: Apoptosis assay (Cellomics, nucleus condensation); format: cell-based; conditions: Table III, read-out: Apoptosis induction in U118
Description: as §1

[11] = test system: viable cells in culture; assay: Cell viability assay at 10 μM (CellTiter-Glo, Table VII); format: cell-based; conditions: compound 10 μM, 72 h;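 further: graded A 0-20%; B 21-40%; C 41-60%; D over 60% viable cells relative to DMSO control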
Summary of the method: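 Viable cell number was measured with the CellTiter-Glo Luminescent Cell Viability Assay (Promega), following the manufacturer's protocol, which quantifies ATP as a marker of metabolically active cells. In 96-well plates, 1000 cells/well in 100 μl medium were exposed to compound at 10 μM, or to DMSO control, for 72 h. Values were calculated relative to DMSO-control ATP.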

[12] = Homo sapiens, C8161 cells, read-out: IC50 Wound healing Assay C8161
[13] = SF763 cells, read-out: IC50 Wound healing Assay SF763
[14] = Homo sapiens, C8161 cells, read-out: Total branching inhibition in Matrigel C8161
[15] = Homo sapiens, Hs-578T, Hs578T cells, read-out: Total branching inhibition in Matrigel Hs578T
[16] = U118 cells, read-out: Total branching inhibition in Matrigel U118
[17] = U138 cells, read-out: Total branching inhibition in Matrigel U138

Structure (SMILES)	IC50 [1] [µM]	IC50 [2, 12] [µM]	IC50 [2, 13] [µM]	IC50 [3, 14] [µM]	IC50 [3, 15] [µM]	IC50 [3, 16] [µM]	IC50 [3, 17] [µM]	IC50 [4] [µM]	IC50 [5] [µM]	IC50 [6] [µM]	IC50 [7] [µM]	IC50 [8] [µM]	IC50 [9] [µM]	IC50 [10] [µM]	other results
COc1cc2c(Oc3ccc(NS(=O)(=O)c4ccc(F)c(F)c4F)cc3F)ccnc2cc1OCCCN1CCN(C)CC1 [Example 17, 2,3,4-Trifluoro-N-(3-fluoro-4-{6-methoxy-7-[3-(4-methyl-piperazin-1-yl)-propoxy]-quinolin-4-yloxy}-phenyl)-benzenesulfonamide]	≤ 5	≤ 12.5	12.5 to 50	≤ 5	≤ 5	≤ 5	5 to 50	≤ 10	≤ 12.5	≤ 12.5	≤ 12.5	≤ 12.5	≤ 12.5	12.5 to 50	melting point: 88 to 90 °C
O=S(=O)(Nc1ccc(Oc2ccnc3cc(OCCCCN4CCOCC4)ccc23)c(F)c1)c1cc(F)ccc1F [Example 84, 2,5-Difluoro-N-{3-fluoro-4-[7-(4-morpholin-4-yl-butoxy)-quinolin-4-yloxy]-phenyl}-benzenesulfonamide]	≤ 5	≤ 12.5	12.5 to 50	≤ 5	≤ 5	≤ 5	≤ 5	≤ 10	≤ 12.5	≤ 12.5	≤ 12.5	≤ 12.5	≤ 12.5	≤ 12.5	viability at 10 µM ([11]; Homo sapiens, HCT-116, HCT116 def, read-out: percentage (%) of viable cells HCT 116def): 0 to 20%; viability at 10 µM ([11]; Homo sapiens, HCT-116, HCT116 wt, read-out: percentage (%) of viable cells HCT 116wt): 0 to 20%; viability at 10 µM ([11]; Homo sapiens, HT-29, HT29, read-out: percentage (%) of viable cells HT29): 0 to 20%; viability at 10 µM ([11]; Homo sapiens, NCI-H358, H358, read-out: percentage (%) of viable cells H358): 0 to 20%; viability at 10 µM ([11]; Homo sapiens, NCI-H1650, H1650, read-out: percentage (%) of viable cells H1650): 0 to 20%; viability at 10 µM ([11]; Homo sapiens, NCI-H1666, H1666, read-out: percentage (%) of viable cells H1666): 41 to 60%; viability at 10 µM ([11]; Homo sapiens, NCI-H1975, H1975, read-out: percentage (%) of viable cells H1975): 21 to 40%; viability at 10 µM ([11]; Homo sapiens, NCI-H1993, H1993, read-out: percentage (%) of viable cells H1993): 0 to 20%; viability at 10 µM ([11]; Homo sapiens, A549, read-out: percentage (%) of viable cells A549): > 60%; viability at 10 µM ([11]; Homo sapiens, HCC827, read-out: percentage (%) of viable cells HCC827): > 60%; viability at 10 µM ([11]; Homo sapiens, SW480, read-out: percentage (%) of viable cells SW480): 0 to 20%; viability at 10 µM ([11]; RKO, read-out: percentage (%) of viable cells RKO): 0 to 20%
